From PMC5983452 (PLoS ONE, 2018)
Structures can show the parent of a compound that is named as a salt. Where two headings read alike, the source gives them in different places.

Test system: panel of 240 cancer cell lines
Assay: Proliferation in a broad panel of 240 cancer cell lines, 2D culture (Eurofins Panlabs Oncopanel)
Format: cell-based
Method: Cell lines used in these experiments were obtained from the following sources and were cultured according to conditions specified by the respective cell banks. […] The cell lines listed above were tested for mycoplasma and were negative. Cells were authenticated by STR method or vendor protocols. All 313 cell lines in the CRIPSR pooled screen were purchased from commercial vendors and were STR authenticated and mycoplasma negative. A broad panel of cancer cell lines was screened in the Eurofins Oncopanel. All cells in this panel were mycoplasma negative and STR verified.

Measured: IC50

NC1CCC(S(=O)(=O)N2C3CCC2CC(NC(=O)c2cc(C4CC4)on2)C3)CC1 [EPZ028862, N-((1R,3R,5S)-8-((1r,4R)-4-aminocyclohexylsulfonyl)-8-aza-bicyclo[3.2.1]octan-3-yl)-5-cyclopropylisoxazole-3-carboxamide hydrochloride]
> 25 µM: Homo sapiens, LS174T, LS-174T, Colon/GI, read-out: IC50 | Homo sapiens, LS-1034, LS1034, Colon/GI, read-out: IC50 | Homo sapiens, MC-IXC, CNS, read-out: IC50 | Homo sapiens, MCF7, MCF7, Breast, read-out: IC50 | Homo sapiens, MDA-MB-231, MDA MB 231, Breast, read-out: IC50 | Homo sapiens, MDA-MB-436, MDA-MB-436, Breast, read-out: IC50 | Homo sapiens, MDA-MB-453, MDA MB 453, Breast, read-out: IC50 | Homo sapiens, MDA-MB-468, MDA MB 468, Breast, read-out: IC50 | Homo sapiens, MEG-01, MEG01, Haematopoietic and lymphoid, read-out: IC50 | Homo sapiens, MES-SA, Soft Tissue, read-out: IC50 | Homo sapiens, MG-63, MG-63, Soft Tissue, read-out: IC50 | Homo sapiens, MHH-PREB-1, MHH-PREB-1, Haematopoietic and lymphoid, read-out: IC50 | Homo sapiens, MIA PaCa-2, Mia PaCa-2, Pancreas, read-out: IC50 | Homo sapiens, MOLT-3, MOLT-3, Haematopoietic and lymphoid, read-out: IC50 | Homo sapiens, MOLT-16, MOLT-16, Haematopoietic and lymphoid, read-out: IC50 | Homo sapiens, MV4-11, MV-4-11, Haematopoietic and lymphoid, read-out: IC50 | Homo sapiens, Malme-3M, MALME3M, Skin, read-out: IC50 | Homo sapiens, MeWo, Skin, read-out: IC50 | Homo sapiens, NALM-6, NALM-6, Haematopoietic and lymphoid, read-out: IC50 | Homo sapiens, NCI-H69, NCI-H69, Lung, read-out: IC50 | Homo sapiens, NCI-H292, NCI-H292, Lung, read-out: IC50 | Homo sapiens, NCI-H295R, Endocrine, read-out: IC50 | Homo sapiens, NCI-H441, NCIH441, Lung, read-out: IC50 | Homo sapiens, NCI-H446, NCIH446, Lung, read-out: IC50 | Homo sapiens, NCI-H460, NCI-H460, Lung, read-out: IC50 | Homo sapiens, NCI-H508, NCI-H508, Colon/GI, read-out: IC50 | Homo sapiens, NCI-H520, NCI-H520, Lung, read-out: IC50 | Homo sapiens, NCI-H596, NCI-H596, Lung, read-out: IC50 | Homo sapiens, NCI-H661, NCI-H661, Lung, read-out: IC50 | Homo sapiens, NCI-H747, NCI-H747, Colon/GI, read-out: IC50 | Homo sapiens, OE19, OE19, Head and Neck, read-out: IC50 | Homo sapiens, OE33, OE33, Head and Neck, read-out: IC50 | Homo sapiens, OVCAR-3, OVCAR3, Female GU, read-out: IC50 | Homo sapiens, PANC-1, PANC-1, Pancreas, read-out: IC50 | Homo sapiens, RKOE6, RKOE6, Colon/GI, read-out: IC50 | Homo sapiens, RL95-2, RL95-2, Female GU, read-out: IC50 | Homo sapiens, RPMI-6666, RPMI 6666, Haematopoietic and lymphoid, read-out: IC50 | Homo sapiens, RPMI-7951, RPMI-7951, Skin, read-out: IC50 | Homo sapiens, RPMI-8226, RPMI 8226, Haematopoietic and lymphoid, read-out: IC50 | Homo sapiens, Raji, Haematopoietic and lymphoid, read-out: IC50 | Homo sapiens, Ramos, Ramos (RA 1), Haematopoietic and lymphoid, read-out: IC50 | Homo sapiens, SAOS-2, SaOS2, Soft Tissue, read-out: IC50 | Homo sapiens, SCC-4, SCC-4, Head and Neck, read-out: IC50 | Homo sapiens, SCC-9, SCC-9, Head and Neck, read-out: IC50 | Homo sapiens, SCC-25, SCC-25, Head and Neck, read-out: IC50 | Homo sapiens, SCaBER, Bladder, read-out: IC50 | Homo sapiens, SHP77, SHP-77, Lung, read-out: IC50 | Homo sapiens, SJRH30, SJRH30, Soft Tissue, read-out: IC50 | Homo sapiens, SJSA-1, SJSA1, Soft Tissue, read-out: IC50 | Homo sapiens, SK-BR-3, SK-BR-3, Breast, read-out: IC50 | Homo sapiens, SK-LMS-1, SK-LMS-1, Soft Tissue, read-out: IC50 | Homo sapiens, SK-MEL3, SK-MEL-3, Skin, read-out: IC50 | Homo sapiens, SK-MEL-1, SK-MEL-1, Skin, read-out: IC50 | Homo sapiens, SK-MEL-28, SK-MEL-28, Skin, read-out: IC50 | Homo sapiens, SK-MES-1, SKMES1, Lung, read-out: IC50 | Homo sapiens, SK-N-AS, CNS, read-out: IC50 | Homo sapiens, SK-N-DZ, CNS, read-out: IC50 | Homo sapiens, SK-N-FI, CNS, read-out: IC50 | Homo sapiens, SK-NEP-1, SK-NEP-1, Kidney, read-out: IC50 | Homo sapiens, SK-OV-3, SKOV3, Female GU, read-out: IC50 | Homo sapiens, SK-UT-1, SK-UT-1, Soft Tissue, read-out: IC50 | Homo sapiens, SNB-19, SNB-19, CNS, read-out: IC50 | Homo sapiens, SNU1, SNU-1, Colon/GI, read-out: IC50 | Homo sapiens, SNU-5, SNU-5, Colon/GI, read-out: IC50 | Homo sapiens, SNU-16, SNU-16, Colon/GI, read-out: IC50 | Homo sapiens, SNU-423, SNU-423, Liver, read-out: IC50 | Homo sapiens, ST486, ST486, Haematopoietic and lymphoid, read-out: IC50 | Homo sapiens, SU.86.86, SU.86.86, Pancreas, read-out: IC50 | Homo sapiens, SW13, SW-13, Endocrine, read-out: IC50 | Homo sapiens, SW48, SW48, Colon/GI, read-out: IC50 | Homo sapiens, SW480, SW480, Colon/GI, read-out: IC50 | Homo sapiens, SW684, SW684, Soft Tissue, read-out: IC50 | Homo sapiens, SW837, SW837, Colon/GI, read-out: IC50 | Homo sapiens, SW872, SW872, Soft Tissue, read-out: IC50 | Homo sapiens, SW900, SW900, Lung, read-out: IC50 | Homo sapiens, SW948, SW948, Colon/GI, read-out: IC50 | Homo sapiens, SW 954, SW954, Female GU, read-out: IC50 | Homo sapiens, SW 962, SW962, Female GU, read-out: IC50 | Homo sapiens, SW982, SW982, Soft Tissue, read-out: IC50 | Homo sapiens, SW1088, SW1088, CNS, read-out: IC50 | Homo sapiens, SW1353, SW1353, Soft Tissue, read-out: IC50 | Homo sapiens, SW1417, SW1417, Colon/GI, read-out: IC50 | Homo sapiens, SW1463, SW1463, Colon/GI, read-out: IC50 | Homo sapiens, SW1783, SW1783, CNS, read-out: IC50 | Homo sapiens, SW-403, SW403, Colon/GI, read-out: IC50 | Homo sapiens, SW-620, SW620, Colon/GI, read-out: IC50 | Homo sapiens, SiHa, Female GU, read-out: IC50 | Homo sapiens, T47D, Breast, read-out: IC50 | Homo sapiens, T98G, CNS, read-out: IC50 | Homo sapiens, TCC-SUP, TCCSUP, Bladder, read-out: IC50 | Homo sapiens, THP-1, Thp1, Haematopoietic and lymphoid, read-out: IC50 | Homo sapiens, U2OS, Soft Tissue, read-out: IC50 | Homo sapiens, U138-MG, U-138MG, CNS, read-out: IC50 | Homo sapiens, U-87 MG, CNS, read-out: IC50 | Homo sapiens, UMUC3, UM-UC-3, Bladder, read-out: IC50 | Homo sapiens, WI-38, Wi38, Lung, read-out: IC50 | Homo sapiens, WiDr, Colon/GI, read-out: IC50 | Homo sapiens, YAPC, Pancreas, read-out: IC50 | Hs766T, Hs 766T, Pancreas, read-out: IC50 | J82, Bladder, read-out: IC50 | JAR, Female GU, read-out: IC50 | KHOS-240S, Soft Tissue, read-out: IC50 | KLE, Female GU, read-out: IC50 | KPL-1, KPL-1, Breast, read-out: IC50 | MT-3, Breast, read-out: IC50 | MX1, Haematopoietic and lymphoid, read-out: IC50 | OCUG-1, OCUG-1, Liver, read-out: IC50 | OE21, OE21, Head and Neck, read-out: IC50 | PC-3, Prostate, read-out: IC50 | RD, Soft Tissue, read-out: IC50 | RKO, Colon/GI, read-out: IC50 | RKOAS451, RKO-AS45-1, Colon/GI, read-out: IC50 | SH-4, Skin, read-out: IC50 | SKO-007, SKO-007, Haematopoietic and lymphoid, read-out: IC50 | SR, Haematopoietic and lymphoid, read-out: IC50 | SW579, SW579, Endocrine, read-out: IC50 | T24, Bladder, read-out: IC50 | TE 381.T, Soft Tissue, read-out: IC50 | U266B1, Haematopoietic and lymphoid, read-out: IC50 | Y79, Eye-retinoblastoma, read-out: IC50 | read-out: anti-proliferative IC50 across the panel of 240 cancer cell lines, 2D culture
